According to ChEMBL document CHEMBL1201862, “PubChem BioAssay data set” (2004):
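Cultured in 96-well plates, cells were exposed to test compound for 48 hours across five concentrations. GI50: concentration for 50% inhibition of growth.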 Active and inactive are the calls of the source. Rule as the data show it: active = GI50 up to about 1.1 µM and inactive = higher.

Legend:
Test in all cases: NCI tumour cell line growth inhibition, 48 h
LOX IMVI = test system: LOX IMVI
SNB-75 = test system: SNB-75
UACC-62 = test system: UACC-62
SW-620 = test system: SW-620
HT-29 = test system: HT-29
NCI-H460 = test system: NCI-H460
SK-MEL-5 = test system: SK-MEL-5
SF-295 = test system: SF-295
A498 = test system: A498
OVCAR-5 = test system: OVCAR-5
SK-MEL-28 = test system: SK-MEL-28
MOLT-4 = test system: MOLT-4
OVCAR-4 = test system: OVCAR-4
SK-OV-3 = test system: SK-OV-3
KM12 = test system: KM12
Malme-3M = test system: Malme-3M
UO-31 = test system: UO-31
CAKI-1 = test system: CAKI-1
SNB-19 = test system: SNB-19
RPMI-8226 = test system: RPMI-8226

Structure (SMILES)	GI50 (LOX IMVI)	GI50 (SNB-75)	GI50 (UACC-62)	GI50 (SW-620)	GI50 (HT-29)	GI50 (NCI-H460)	GI50 (SK-MEL-5)	GI50 (SF-295)	GI50 (A498)	GI50 (OVCAR-5)	GI50 (SK-MEL-28)	GI50 (MOLT-4)	GI50 (OVCAR-4)	GI50 (SK-OV-3)	GI50 (KM12)	GI50 (Malme-3M)	GI50 (UO-31)	GI50 (CAKI-1)	GI50 (SNB-19)	GI50 (RPMI-8226)
Nc1ccc2cc(S(=O)(=O)O)cc(O)c2c1/N=N/c1ccc(NC(=O)Nc2ccc(/N=N/c3c(N)ccc4cc(S(=O)(=O)O)cc(O)c34)c(S(=O)(=O)O)c2)cc1S(=O)(=O)O	> 100 µM (inactive)	95.9 µM (inactive)	> 100 µM (inactive)	> 100 µM (inactive)	> 100 µM (inactive)	> 100 µM (inactive)	> 100 µM (inactive)	> 100 µM (inactive)	> 100 µM (inactive)	> 79.6 µM (inactive)	> 100 µM (inactive)	> 100 µM (inactive)	> 84.1 µM (inactive)	> 100 µM (inactive)	> 100 µM (inactive)	> 100 µM (inactive)	> 100 µM (inactive)	–	–	–
COc1ccc2c(c1)[n+]([O-])c(C(C)=O)c(C)[n+]2[O-]	> 100 µM (inactive)	–	> 100 µM (inactive)	> 100 µM (inactive)	> 100 µM (inactive)	> 100 µM (inactive)	> 100 µM (inactive)	> 100 µM (inactive)	–	> 100 µM (inactive)	> 100 µM (inactive)	> 100 µM (inactive)	> 100 µM (inactive)	> 100 µM (inactive)	> 100 µM (inactive)	> 100 µM (inactive)	> 100 µM (inactive)	> 100 µM (inactive)	> 100 µM (inactive)	> 100 µM (inactive)
CN(CC(=O)O)c1ncc2c(n1)-c1ccccc1OC2c1ccccc1 (stereo unspecified)	> 100 µM (inactive)	43.6 µM (inactive)	92.5 µM (inactive)	> 100 µM (inactive)	> 100 µM (inactive)	89.7 µM (inactive)	> 100 µM (inactive)	> 100 µM (inactive)	–	> 100 µM (inactive)	> 100 µM (inactive)	29.2 µM (inactive)	> 100 µM (inactive)	> 100 µM (inactive)	79.6 µM (inactive)	> 100 µM (inactive)	38 µM (inactive)	> 100 µM (inactive)	> 100 µM (inactive)	38.1 µM (inactive)
CCCCCCC1NN(C(C)=O)C(CCCCCC)NN1C(C)=O (stereo unspecified)	19.9 µM (inactive)	> 100 µM (inactive)	> 100 µM (inactive)	20.4 µM (inactive)	> 100 µM (inactive)	17.7 µM (inactive)	> 100 µM (inactive)	> 100 µM (inactive)	–	> 100 µM (inactive)	–	> 100 µM (inactive)	> 100 µM (inactive)	> 100 µM (inactive)	> 100 µM (inactive)	> 100 µM (inactive)	> 100 µM (inactive)	> 100 µM (inactive)	> 100 µM (inactive)	24 µM (inactive)
CN(C)CC(CO)(CN(C)C)CN(C)C	–	> 100 µM (inactive)	> 100 µM (inactive)	> 100 µM (inactive)	> 100 µM (inactive)	> 100 µM (inactive)	> 100 µM (inactive)	> 100 µM (inactive)	–	> 100 µM (inactive)	> 100 µM (inactive)	> 100 µM (inactive)	> 100 µM (inactive)	> 100 µM (inactive)	> 100 µM (inactive)	> 100 µM (inactive)	> 100 µM (inactive)	> 100 µM (inactive)	> 100 µM (inactive)	> 100 µM (inactive)
Cn1nc(-c2ccccc2)c(C(=O)/C=C/c2ccccc2)c(N2CCCC2)c1=O	15.1 µM (inactive)	–	13.9 µM (inactive)	17.9 µM (inactive)	12.6 µM (inactive)	10.3 µM (inactive)	15.3 µM (inactive)	–	11.4 µM (inactive)	–	16.6 µM (inactive)	4.39 µM (inactive)	–	22.7 µM (inactive)	–	–	21.4 µM (inactive)	–	–	6.35 µM (inactive)
O=C(CCC(NC(=O)OCc1ccccc1)C(=O)OCc1ccccc1)Nc1cccc(OCc2ccccc2)c1 (stereo unspecified)	19.3 µM (inactive)	35.6 µM (inactive)	32.8 µM (inactive)	33.6 µM (inactive)	29.9 µM (inactive)	23.6 µM (inactive)	–	59.6 µM (inactive)	–	28.6 µM (inactive)	40.4 µM (inactive)	26.4 µM (inactive)	30.2 µM (inactive)	67.3 µM (inactive)	34.8 µM (inactive)	14.5 µM (inactive)	–	31.2 µM (inactive)	51.3 µM (inactive)	–
FC(F)(F)c1ccc2c(c1)nc1n2C(c2c(Cl)cccc2Cl)SC1 (stereo unspecified)	25.9 µM (inactive)	15.1 µM (inactive)	14.4 µM (inactive)	24.3 µM (inactive)	16.1 µM (inactive)	16.8 µM (inactive)	–	16.6 µM (inactive)	17.9 µM (inactive)	15.5 µM (inactive)	14.4 µM (inactive)	38.7 µM (inactive)	18.3 µM (inactive)	25.8 µM (inactive)	12.2 µM (inactive)	18.2 µM (inactive)	15.4 µM (inactive)	14.9 µM (inactive)	19.1 µM (inactive)	–
CN(C)CC1CCC/C(=C\c2ccccc2)C1=O (stereo unspecified)	1.69 µM (inactive)	13.8 µM (inactive)	7.01 µM (inactive)	1.55 µM (inactive)	1.75 µM (inactive)	3.1 µM (inactive)	8.79 µM (inactive)	19.5 µM (inactive)	17.4 µM (inactive)	15.6 µM (inactive)	2.23 µM (inactive)	4.6 µM (inactive)	1.6 µM (inactive)	19.8 µM (inactive)	1.19 µM (inactive)	1.85 µM (inactive)	2.32 µM (inactive)	1.77 µM (inactive)	16.2 µM (inactive)	–
CC1(CO)COS(=O)OC1 (stereo unspecified)	> 100 µM (inactive)	> 100 µM (inactive)	–	> 100 µM (inactive)	> 100 µM (inactive)	> 100 µM (inactive)	> 100 µM (inactive)	> 100 µM (inactive)	1.89 µM (inactive)	–	> 100 µM (inactive)	> 100 µM (inactive)	> 100 µM (inactive)	> 100 µM (inactive)	> 100 µM (inactive)	–	> 100 µM (inactive)	–	> 100 µM (inactive)	–
COc1ccc2c(c1)-c1oc3ccccc3c(=O)c1CO2	21.6 µM (inactive)	31.6 µM (inactive)	38.1 µM (inactive)	28.2 µM (inactive)	31.1 µM (inactive)	–	17.4 µM (inactive)	69 µM (inactive)	–	> 100 µM (inactive)	–	28.1 µM (inactive)	–	35.4 µM (inactive)	39.5 µM (inactive)	55.8 µM (inactive)	22.9 µM (inactive)	20.8 µM (inactive)	–	20.8 µM (inactive)
c1ccc(/N=C(\N2CCCCC2)N(CCN2CCCCC2)c2ccccc2)cc1	0.622 µM (active)	2.28 µM (inactive)	–	1.8 µM (inactive)	0.141 µM (active)	0.274 µM (active)	1.36 µM (inactive)	1.04 µM (active)	–	1.82 µM (inactive)	1.99 µM (inactive)	0.279 µM (active)	1.2 µM (inactive)	1.65 µM (inactive)	–	–	1.68 µM (inactive)	3.15 µM (inactive)	3.78 µM (inactive)	0.192 µM (active)
OC1C2CCC3C2CC(C(O)(c2ccccc2)c2ccccc2)C13 (stereo unspecified)	37.8 µM (inactive)	5.47 µM (inactive)	47.5 µM (inactive)	> 100 µM (inactive)	74.5 µM (inactive)	41.3 µM (inactive)	28.6 µM (inactive)	28 µM (inactive)	37 µM (inactive)	> 100 µM (inactive)	> 100 µM (inactive)	35.8 µM (inactive)	> 100 µM (inactive)	> 100 µM (inactive)	61.7 µM (inactive)	28.4 µM (inactive)	67.6 µM (inactive)	40 µM (inactive)	> 100 µM (inactive)	–
COc1cc(=O)oc(/C=C/C=O)c1C	5.2 µM (inactive)	16.3 µM (inactive)	16 µM (inactive)	19.4 µM (inactive)	19.9 µM (inactive)	–	20.6 µM (inactive)	15.8 µM (inactive)	> 100 µM (inactive)	38.3 µM (inactive)	12.6 µM (inactive)	27.5 µM (inactive)	17 µM (inactive)	27.2 µM (inactive)	21.9 µM (inactive)	21.7 µM (inactive)	20.8 µM (inactive)	33 µM (inactive)	14.8 µM (inactive)	–
CC1(C)[C@H](C(=O)O)N2C(=O)[C@@H](NS(=O)(=O)c3ccc([N+](=O)[O-])cc3)[C@H]2S1(=O)=O	> 100 µM (inactive)	> 100 µM (inactive)	> 100 µM (inactive)	> 100 µM (inactive)	> 100 µM (inactive)	> 100 µM (inactive)	> 100 µM (inactive)	> 100 µM (inactive)	> 100 µM (inactive)	> 100 µM (inactive)	> 100 µM (inactive)	> 100 µM (inactive)	> 100 µM (inactive)	> 100 µM (inactive)	> 100 µM (inactive)	> 100 µM (inactive)	> 100 µM (inactive)	> 100 µM (inactive)	> 100 µM (inactive)	–
COc1c(CC(C)O)c2c3c(CC(C)O)c(OC)c(=O)c4c(O)cc5c(c6c(cc(O)c(c1=O)c62)OCO5)c43 (stereo unspecified) [CERCOSPORIN]	0.711 µM (active)	2.38 µM (inactive)	1.78 µM (inactive)	2.1 µM (inactive)	0.364 µM (active)	0.45 µM (active)	1.52 µM (inactive)	1.91 µM (inactive)	–	2.88 µM (inactive)	1.86 µM (inactive)	1.75 µM (inactive)	1.38 µM (inactive)	4.14 µM (inactive)	1.62 µM (inactive)	0.374 µM (active)	2.14 µM (inactive)	6.01 µM (inactive)	2.49 µM (inactive)	2.1 µM (inactive)
